Earlier results in patent US10980856B2, “Composition and method for treating plantar fasciitis in humans” (priority 2017, dated 2021).

Key:
[1] = system: human peripheral blood monocytes; conditions: after 40 hours
[2] = system: Balb/c mice injected with histamine; conditions: applied immediately after histamine injection

Row | Structure (SMILES) | superoxide production by agonist-stimulated monocytes (monocytes) | inhibition of lipopolysaccharide-induced production of IL-10 [1] [%] | inhibition of lipopolysaccharide-induced production of TNF-α [1] [%] | inhibition of lipopolysaccharide-induced production of interleukin-1b (IL-1b) [1] [%] | inhibition of lipopolysaccharide-induced production of prostaglandin E2 [1] [%] | histamine-induced skin edema [2]
1 | CC1=CC[C@@H](C(C)(C)O)CC1 [a-terpineol] | suppress | – | – | – | – | –
2 | CC1=CCC(O)(C(C)C)CC1 (stereo not shown) [terpinen-4-ol] | suppress | 50 | 50 | 50 | 30 | reduced
